{
  "source": "patent US20250270209A1",
  "about": "(INTERLINE THERAPEUTICS, INC., priority 2022, published 2025)",
  "key": {"[1]": {"biological_target": "T1, wild type LRRK2 overexpressed in recombinant HEK-293T cells (Homo sapiens, UniProt Q5S007)", "T1 construct": "host or cells: HEK293T (transient transfection with pCMV-LRRK2 WT plasmid)", "T1 sequence (Q5S007 whole entry)": "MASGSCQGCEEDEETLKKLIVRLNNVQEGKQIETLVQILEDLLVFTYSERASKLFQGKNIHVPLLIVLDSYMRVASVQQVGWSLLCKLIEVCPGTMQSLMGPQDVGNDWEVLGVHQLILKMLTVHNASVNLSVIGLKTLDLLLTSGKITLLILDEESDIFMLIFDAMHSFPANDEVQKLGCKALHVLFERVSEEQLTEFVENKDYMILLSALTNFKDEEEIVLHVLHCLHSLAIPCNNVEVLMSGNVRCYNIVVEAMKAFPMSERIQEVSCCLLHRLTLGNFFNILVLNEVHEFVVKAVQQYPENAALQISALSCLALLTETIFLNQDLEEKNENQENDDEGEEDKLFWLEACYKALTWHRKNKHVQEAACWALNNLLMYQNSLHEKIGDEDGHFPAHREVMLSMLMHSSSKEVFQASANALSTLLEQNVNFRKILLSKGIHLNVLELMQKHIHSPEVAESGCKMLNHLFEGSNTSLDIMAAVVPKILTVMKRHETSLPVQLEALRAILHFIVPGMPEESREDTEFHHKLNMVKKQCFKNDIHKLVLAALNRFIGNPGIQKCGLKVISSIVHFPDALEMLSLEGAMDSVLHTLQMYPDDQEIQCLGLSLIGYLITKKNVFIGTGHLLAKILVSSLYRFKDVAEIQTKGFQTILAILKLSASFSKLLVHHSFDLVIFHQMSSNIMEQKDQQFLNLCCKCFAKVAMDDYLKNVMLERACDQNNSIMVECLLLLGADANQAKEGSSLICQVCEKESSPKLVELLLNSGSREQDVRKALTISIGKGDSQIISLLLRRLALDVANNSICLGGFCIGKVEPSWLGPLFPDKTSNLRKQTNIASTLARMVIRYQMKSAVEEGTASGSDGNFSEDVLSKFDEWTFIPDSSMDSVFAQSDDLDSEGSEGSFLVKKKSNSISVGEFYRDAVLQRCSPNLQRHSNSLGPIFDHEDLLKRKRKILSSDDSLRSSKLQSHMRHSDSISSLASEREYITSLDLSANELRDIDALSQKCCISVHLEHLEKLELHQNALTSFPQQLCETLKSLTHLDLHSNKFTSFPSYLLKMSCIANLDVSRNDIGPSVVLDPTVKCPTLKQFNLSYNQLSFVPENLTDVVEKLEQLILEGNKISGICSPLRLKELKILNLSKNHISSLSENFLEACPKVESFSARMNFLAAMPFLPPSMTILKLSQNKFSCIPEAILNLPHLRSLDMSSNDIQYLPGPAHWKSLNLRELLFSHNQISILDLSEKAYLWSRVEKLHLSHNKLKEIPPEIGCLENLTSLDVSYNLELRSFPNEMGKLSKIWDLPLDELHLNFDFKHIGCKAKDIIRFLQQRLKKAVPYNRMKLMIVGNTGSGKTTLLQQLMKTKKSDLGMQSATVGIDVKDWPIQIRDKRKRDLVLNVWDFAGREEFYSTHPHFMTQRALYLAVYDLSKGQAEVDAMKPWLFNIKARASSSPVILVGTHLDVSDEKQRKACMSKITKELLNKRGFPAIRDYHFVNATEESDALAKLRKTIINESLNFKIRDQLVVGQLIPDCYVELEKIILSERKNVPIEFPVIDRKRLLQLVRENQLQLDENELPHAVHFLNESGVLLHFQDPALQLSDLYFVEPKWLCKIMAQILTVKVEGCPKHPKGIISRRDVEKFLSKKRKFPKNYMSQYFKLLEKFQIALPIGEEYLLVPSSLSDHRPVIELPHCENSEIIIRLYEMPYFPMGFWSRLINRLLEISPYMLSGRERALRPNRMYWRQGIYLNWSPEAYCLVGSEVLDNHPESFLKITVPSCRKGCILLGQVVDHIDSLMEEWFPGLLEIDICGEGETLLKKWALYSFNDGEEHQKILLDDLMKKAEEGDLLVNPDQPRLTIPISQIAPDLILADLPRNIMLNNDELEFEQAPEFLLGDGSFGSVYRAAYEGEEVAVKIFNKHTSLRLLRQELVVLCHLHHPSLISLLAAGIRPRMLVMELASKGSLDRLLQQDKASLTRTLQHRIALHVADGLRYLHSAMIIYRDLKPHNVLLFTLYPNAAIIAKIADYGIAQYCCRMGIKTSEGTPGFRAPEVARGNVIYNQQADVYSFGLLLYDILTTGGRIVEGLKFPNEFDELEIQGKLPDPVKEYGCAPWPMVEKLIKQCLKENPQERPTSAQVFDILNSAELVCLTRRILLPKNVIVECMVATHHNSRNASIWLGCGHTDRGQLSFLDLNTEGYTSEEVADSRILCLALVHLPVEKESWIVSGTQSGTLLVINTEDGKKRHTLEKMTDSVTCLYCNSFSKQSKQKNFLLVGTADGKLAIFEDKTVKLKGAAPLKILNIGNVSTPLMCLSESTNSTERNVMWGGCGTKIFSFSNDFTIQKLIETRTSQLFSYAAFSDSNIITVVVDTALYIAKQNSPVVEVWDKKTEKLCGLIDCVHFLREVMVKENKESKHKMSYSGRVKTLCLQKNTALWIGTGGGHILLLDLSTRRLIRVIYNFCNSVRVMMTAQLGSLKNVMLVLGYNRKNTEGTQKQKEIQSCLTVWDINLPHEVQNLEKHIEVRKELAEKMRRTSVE", "experiment": "pS935 LRRK2 Cell Assay (HTRF, phospho-LRRK2 Ser935)", "type": "cell-based", "conditions": "LRRK2 Inhibition, Table 8, 2 hours compound incubation", "summary_of_the_method": "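HEK-293T cells transiently transfected with wild-type LRRK2 for 24 h, plated overnight, then treated 2 h at 37° C with compound (top 10 μM, 3-fold, 9 doses, duplicates, 0.2% DMSO). Lysates probed overnight at 23° C by sandwich HTRF for pSer935; 665/615 nm ratio read.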"}, "LRRK2 wild type enzyme": {"biological_target": "LRRK2 wild type enzyme (Homo sapiens, UniProt Q5S007)", "sequence (Q5S007 whole entry)": "as above", "experiment": "Biochemical Assay: LRRK2 TR-FRET (LanthaScreen) kinase assay with LRRKtide substrate", "conditions": "LRRK2 Inhibition, Table 8", "summary_of_the_method": "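Human wild-type LRRK2 (3 nM) preincubated 15 min with compound (11-point, 3-fold, top 10 μM), then reacted 120 min at 23 °C with 400 nM LRRKtide and 25 μM ATP, pH 8.0. Stopped with EDTA; Tb-anti-pLRRKtide TR-FRET read after 30 min.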"}},
  "data": [
    {"smiles": "Cc1nn(C)c(Cl)c1NC(=O)Cc1nc2cnc3ccc(C#N)cc3c2n1[C@@H]1CCO[C@H](C)C1", "note": "[Compound 296, N-(5-chloro-1-methyl-3-methyl-4-pyrazolyl){3-[(2R,4R)-2-methyltetrahydro-2H-pyran-4-yl]-12-cyano-3,5,8-triazatricyclo[7.4.0.0^2,6]trideca-1,4,6,8,10,12-hexaen-4-yl}acetamide]", "values": [
      {"measurement": "IC50", "setting": "[1]", "result": 7.61, "unit": "nM"},
      {"measurement": "IC50", "setting": "LRRK2 wild type enzyme", "result": 0.462, "unit": "nM"}
    ]},
    {"smiles": "C[C@@H]1C[C@H](n2c(CS(=O)(=O)NCC3CC3)nc3cnc4ccc(C#N)cc4c32)CCO1", "note": "[Compound 55, 1-{8-cyano-1-[(2R,4R)-2-methyloxan-4-yl]-1H-imidazo[4,5-c]quinolin-2-yl}-N-(cyclopropylmethyl)methanesulfonamide]", "values": [
      {"measurement": "IC50", "setting": "[1]", "result": 272, "unit": "nM"},
      {"measurement": "IC50", "setting": "LRRK2 wild type enzyme", "result": 2.3, "unit": "nM"}
    ]},
    {"smiles": "C[C@@H]1C[C@H](n2c(CC3CN(C(=O)c4ccccn4)C3)nc3cnc4ccc(C#N)cc4c32)CCO1", "note": "[Compound 56, 1-[(2R,4R)-2-methyloxan-4-yl]-2-{[1-(pyridine-2-carbonyl)azetidin-3-yl]methyl}-1H-imidazo[4,5-c]quinoline-8-carbonitrile]", "values": [
      {"measurement": "IC50", "setting": "[1]", "result": 158, "unit": "nM"},
      {"measurement": "IC50", "setting": "LRRK2 wild type enzyme", "result": 2.39, "unit": "nM"}
    ]},
    {"smiles": "C[C@@H]1C[C@H](n2c(CC(=O)NC3(C(F)(F)F)CC3)nc3cnc4ccc(C#N)cc4c32)CCO1", "note": "[Compound 287, N-1-(trifluoromethyl)cyclopropyl{3-[(2R,4R)-2-methyltetrahydro-2H-pyran-4-yl]-12-cyano-3,5,8-triazatricyclo[7.4.0.0^2,6]trideca-1,4,6,8,10,12-hexaen-4-yl}acetamide]", "values": [
      {"measurement": "IC50", "setting": "[1]", "result": 118, "unit": "nM"},
      {"measurement": "IC50", "setting": "LRRK2 wild type enzyme", "result": 1.61, "unit": "nM"}
    ]},
    {"smiles": "C[C@@H]1C[C@H](n2c([C@@H]3CN(CC4CC4)S(=O)(=O)C3)nc3cnc4ccc(C#N)cc4c32)CCO1", "note": "[Compound 1, 2-[(4S)-2-(cyclopropylmethyl)-1,1-dioxo-1X^6,2-thiazolidin-4-yl]-1-[(2R,4R)-2-methyloxan-4-yl]-1H-imidazo[4,5-c]quinoline-8-carbonitrile]", "values": [
      {"measurement": "IC50", "setting": "[1]", "result": 168, "unit": "nM"},
      {"measurement": "IC50", "setting": "LRRK2 wild type enzyme", "result": 2.45, "unit": "nM"}
    ]},
    {"smiles": "C[C@@H]1C[C@H](n2c(CC(=O)Nc3ccnn(C)c3=O)nc3cnc4ccc(C#N)cc4c32)CCO1", "note": "[Compound 215, N-(2-methyl-3-oxo-2,3-dihydro-4-pyridazinyl){3-[(2R,4R)-2-methyltetrahydro-2H-pyran-4-yl]-12-cyano-3,5,8-triazatricyclo[7.4.0.0^2,6]trideca-1,4,6,8,10,12-hexaen-4-yl}acetamide]", "values": [
      {"measurement": "IC50", "setting": "[1]", "result": 5.85, "unit": "nM"},
      {"measurement": "IC50", "setting": "LRRK2 wild type enzyme", "result": 0.438, "unit": "nM"}
    ]},
    {"smiles": "C[C@@H]1C[C@H](n2c(CC(=O)N[C@H]3C[C@H]3F)nc3cnc4ccc(C#N)cc4c32)CCO1", "note": "[Compound 289, N-[(1S,2R)-2-fluorocyclopropyl]{3-[(2R,4R)-2-methyltetrahydro-2H-pyran-4-yl]-12-cyano-3,5,8-triazatricyclo[7.4.0.0^2,6]trideca-1,4,6,8,10,12-hexaen-4-yl}acetamide]", "values": [
      {"measurement": "IC50", "setting": "[1]", "result": 54.5, "unit": "nM"},
      {"measurement": "IC50", "setting": "LRRK2 wild type enzyme", "result": 0.692, "unit": "nM"}
    ]},
    {"smiles": "C[C@@H]1C[C@H](n2c(CC(=O)NCCCO)nc3cnc4ccc(C#N)cc4c32)CCO1", "note": "[Compound 181, 2-{8-cyano-1-[(2R,4R)-2-methyloxan-4-yl]-1H-imidazo[4,5-c]quinolin-2-yl}-N-(3-hydroxypropyl)acetamide]", "values": [
      {"measurement": "IC50", "setting": "[1]", "result": 376, "unit": "nM"},
      {"measurement": "IC50", "setting": "LRRK2 wild type enzyme", "result": 0.578, "unit": "nM"}
    ]},
    {"smiles": "C[C@@H]1C[C@H](n2c(CC(=O)NCc3cccnn3)nc3cnc4ccc(Cl)cc4c32)CCO1", "note": "[Compound 148, 2-{8-chloro-1-[(2R,4R)-2-methyloxan-4-yl]-1H-imidazo[4,5-c]quinolin-2-yl}-N-[(pyridazin-3-yl)methyl]acetamide]", "values": [
      {"measurement": "IC50", "setting": "[1]", "result": 4.5, "unit": "nM"},
      {"measurement": "IC50", "setting": "LRRK2 wild type enzyme", "result": 0.376, "unit": "nM"}
    ]},
    {"smiles": "COc1nc(C2CC2)ncc1NC(=O)Cc1nc2cnc3ccc(C#N)cc3c2n1[C@@H]1CCO[C@H](C)C1", "note": "[Compound 255, N-(2-cyclopropyl-4-methoxy-5-pyrimidinyl){3-[(2R,4R)-2-methyltetrahydro-2H-pyran-4-yl]-12-cyano-3,5,8-triazatricyclo[7.4.0.0^2,6]trideca-1,4,6,8,10,12-hexaen-4-yl}acetamide]", "values": [
      {"measurement": "IC50", "setting": "[1]", "result": 3.92, "unit": "nM"},
      {"measurement": "IC50", "setting": "LRRK2 wild type enzyme", "result": 0.433, "unit": "nM"}
    ]},
    {"smiles": "Cc1nn(C)cc1NC(=O)Cc1nc2cnc3ccc(C#N)cc3c2n1[C@@H]1CCO[C@H](C)C1", "note": "[Compound 231, N-(1-methyl-3-methyl-4-pyrazolyl){3-[(2R,4R)-2-methyltetrahydro-2H-pyran-4-yl]-12-cyano-3,5,8-triazatricyclo[7.4.0.0^2,6]trideca-1,4,6,8,10,12-hexaen-4-yl}acetamide]", "values": [
      {"measurement": "IC50", "setting": "[1]", "result": 13.6, "unit": "nM"},
      {"measurement": "IC50", "setting": "LRRK2 wild type enzyme", "result": 0.621, "unit": "nM"}
    ]},
    {"smiles": "C[C@@H]1C[C@H](n2c(C3CC(=O)N(c4cnn(C)c4)C3)nc3cnc4ccc(Cl)cc4c32)CCO1", "note": "(stereo partly drawn) [Compound 108, 4-{8-chloro-1-[(2R,4R)-2-methyloxan-4-yl]-1H-imidazo[4,5-c]quinolin-2-yl}-1-(1-methyl-1H-pyrazol-4-yl)pyrrolidin-2-one]", "values": [
      {"measurement": "IC50", "setting": "[1]", "result": 42.8, "unit": "nM"},
      {"measurement": "IC50", "setting": "LRRK2 wild type enzyme", "result": 0.981, "unit": "nM"}
    ]},
    {"smiles": "C[C@@H]1C[C@H](n2c(CC3CN(S(C)(=O)=O)C3)nc3cnc4ccc(C#N)cc4c32)CCO1", "note": "[Compound 65, 2-[(1-methanesulfonylazetidin-3-yl)methyl]-1-[(2R,4R)-2-methyloxan-4-yl]-1H-imidazo[4,5-c]quinoline-8-carbonitrile]", "values": [
      {"measurement": "IC50", "setting": "[1]", "result": 525, "unit": "nM"},
      {"measurement": "IC50", "setting": "LRRK2 wild type enzyme", "result": 5.03, "unit": "nM"}
    ]},
    {"smiles": "C[C@@H]1C[C@H](n2c([C@H]3CCN(C(=O)C4CC4)C3)nc3cnc4ccc(C#N)cc4c32)CCO1", "note": "[Compound 41, 2-[(3S)-1-cyclopropanecarbonylpyrrolidin-3-yl]-1-[(2R,4R)-2-methyloxan-4-yl]-1H-imidazo[4,5-c]quinoline-8-carbonitrile]", "values": [
      {"measurement": "IC50", "setting": "[1]", "result": 639, "unit": "nM"},
      {"measurement": "IC50", "setting": "LRRK2 wild type enzyme", "result": 9.62, "unit": "nM"}
    ]},
    {"smiles": "C[C@@H]1C[C@H](n2c(CC(=O)N[C@H]3CCCc4cccnc43)nc3cnc4ccc(C#N)cc4c32)CCO1", "note": "[Compound 358, N-[(S)-5,6,7,8-tetrahydro-8-quinolyl]{3-[(2R,4R)-2-methyltetrahydro-2H-pyran-4-yl]-12-cyano-3,5,8-triazatricyclo[7.4.0.0^2,6]trideca-1(9),2(6),4,7,10,12-hexaen-4-yl}acetamide]", "values": [
      {"measurement": "IC50", "setting": "[1]", "result": 24.5, "unit": "nM"},
      {"measurement": "IC50", "setting": "LRRK2 wild type enzyme", "result": 0.602, "unit": "nM"}
    ]},
    {"smiles": "C[C@@H]1C[C@H](n2c(CC(=O)NCC3CCO3)nc3cnc4ccc(C#N)cc4c32)CCO1", "note": "(stereo partly drawn) [Compound 149, 2-{8-cyano-1-[(2R,4R)-2-methyloxan-4-yl]-1H-imidazo[4,5-c]quinolin-2-yl}-N-[(oxetan-2-yl)methyl]acetamide]", "values": [
      {"measurement": "IC50", "setting": "[1]", "result": 74.3, "unit": "nM"},
      {"measurement": "IC50", "setting": "LRRK2 wild type enzyme", "result": 0.715, "unit": "nM"}
    ]},
    {"smiles": "C[C@@H]1C[C@H](n2c(CC(=O)NCc3cccc(C(F)(F)F)n3)nc3cnc4ccc(C#N)cc4c32)CCO1", "note": "[Compound 370, N-{[6-(trifluoromethyl)-2-pyridyl]methyl}{3-[(2R,4R)-2-methyltetrahydro-2H-pyran-4-yl]-12-cyano-3,5,8-triazatricyclo[7.4.0.0^2,6]trideca-1(9),2(6),4,7,10,12-hexaen-4-yl}acetamide]", "values": [
      {"measurement": "IC50", "setting": "[1]", "result": 2.74, "unit": "nM"},
      {"measurement": "IC50", "setting": "LRRK2 wild type enzyme", "result": 0.295, "unit": "nM"}
    ]},
    {"smiles": "C[C@@H]1C[C@H](n2c(C3CC(=O)N(CC4CC4)C3)nc3cnc4ccc(Cl)cc4c32)CCO1", "note": "(stereo partly drawn) [Compound 3, 4-{8-chloro-1-[(2R,4R)-2-methyloxan-4-yl]-1H-imidazo[4,5-c]quinolin-2-yl}-1-(cyclopropylmethyl)pyrrolidin-2-one]", "values": [
      {"measurement": "IC50", "setting": "[1]", "result": 88.7, "unit": "nM"},
      {"measurement": "IC50", "setting": "LRRK2 wild type enzyme", "result": 1.21, "unit": "nM"}
    ]},
    {"smiles": "C[C@@H]1C[C@H](n2c([C@H]3CC(=O)N(c4cnn(C)c4)C3)nc3cnc4ccc(C#N)cc4c32)CCO1", "note": "[Compound 47, 2-[(3S)-1-(1-methyl-1H-pyrazol-4-yl)-5-oxopyrrolidin-3-yl]-1-[(2R,4R)-2-methyloxan-4-yl]-1H-imidazo[4,5-c]quinoline-8-carbonitrile]", "values": [
      {"measurement": "IC50", "setting": "[1]", "result": 9880, "unit": "nM"},
      {"measurement": "IC50", "setting": "LRRK2 wild type enzyme", "result": 141, "unit": "nM"}
    ]}
  ]
}
